# Experimental data published in patent US11813264B2, “PAR1 modulation to alter myelination” (Mayo Foundation for Medical Education and Research, priority 2014, dated 2023).
# Columns and labels:
# primary oligodendrocytes = assay: Klk6-induced process retraction in primary oligodendrocytes (O4+ processes per cell); format: cell-based, mouse
# Method: Oligodendrocyte Cultures: Purified cortical oligodendrocyte progenitor cells (OPCs) and differentiated oligodendrocytes were isolated from mixed glial cultures derived from postnatal day 1 mice (McCarthy and de Vellis, J Cell Blot 85:890-902, 1980). Glial cultures were grown in media containing DMEM, 2 mM Glutamax, 1 mM sodium pyruvate, 20 mM HEPES, and 10% heat-inactivated fetal calf serum (Atlanta Biologicals, Lawrenceville, GA). OPCs were isolated from 10 days-in-vitro (DIV) mixed glial cultures by overnight shaking and purified by differential adhesion. OPCs were seeded in defined Neurobasal A media containing 1% N2, 50 U/mL penicillin/streptomycin, 2 mM Glutamax, 1 mM sodium pyruvate, 0.45% glucose, and 50 μM β-mercaptoethanol (Sigma Aldrich, USA). OPCs were seeded at 3×10^4/cm^2 onto tissue culture plastic or 12 mm glass cover slips coated with poly-L-lysine (PLL, 10 μg/mL). After 24 h, cultures were 92-98% immunoreactive (IR) for sulfatide (O4) and by 72 hours at least 80% were also MBP-IR.
# (§1) PAR agonist-induced changes in oligodendrocyte morphology: To determine the effects of recombinant Klk6, Klk1, thrombin, or PAR1-AP on oligodendroglia, 3 DIV PAR1^+/+, PAR1^−/−, and PAR2^−/− oligodendrocytes, PAR1^+/+ OPCs immediately post purification, or Oli-neu cells were grown on cover slips in the presence of agonists for 24 h. For ATP toxicity assays, oligodendrocytes were incubated with ATP (50 μM, Sigma Aldrich) in the presence of Klk6 or Klk1. Following each treatment, oligodendrocyte and OPC cultures were immunolabeled for O4 to visualize the cell body and processes. Oli-neu processes were visualized by staining the actin cytoskeleton with Cy3-conjugated Phalloidin.
# (§2) To assess the effects of Klk6 and other PAR1 agonists on oligodendrocyte morphology and process stability, 20× digital micrographs were overlaid with a 780 μm^2 grid and ImageJ software 1.45r (National Institutes of Health) used to record cell number and the number of processes crossing horizontal grid lines (Scarisbrick et al., Brain 125:1283-1296, 2002). Data are expressed as the mean number of O4^+ or Phalloidin^+ processes per DAPI^+ cell (±SEM).
# Changes in OPC or oligodendrocyte morphology were quantified from five microscopic fields per cover slip with the mean and SEM calculated across three cover slips per experiment. Each experiment was repeated at least twice using independent cultures. Analysis of oligodendrocyte morphology was performed without knowledge of treatment groups.
# Oli-neu oligodendrocytes = assay: Process retraction in Oli-neu oligodendrocytes (Phalloidin+ processes per cell); format: cell-based, mouse; conditions: 24 hours, PAR1-AP 100 μM, Klk1 300 nM
# Method: Oli-neu oligodendrocytes are derived from mouse primary oligodendrocyte cultures retrovirally transduced to constitutively express the t-neu oncogene (Jung et al., Eur J Neurosci 7:1245-1265, 1995). All morphology, signaling, and myelin gene expression studies using Oli-neu oligodendrocytes were performed in media containing DMEM, 1% N2, 2 mM Glutamax, 1 mM sodium pyruvate, 20 mM HEPES buffer, and 50 μM β-mercaptoethanol (Sigma Aldrich. To evaluate PAR and Klk6 gene expression in Oli-neu (Table 2), cells were differentiated by treatment with 1 mM N^6, 2′-O-dibutyryladenosine 3′, 5′-cyclic monophosphate disodium salt (dbcAMP) for 72 hours prior to harvesting for RNA isolation. All cells were maintained at 37° C. in 95% air and 5% CO2. Cell culture reagents were obtained from Life Technologies (Carlsbad, CA) unless otherwise indicated. All cell culture experiments were performed in triplicate and repeated at least twice.
# as §1, §2
# spinal cord white matter = assay: Microinjection of Klk6 or PAR1-AP into spinal cord dorsal column white matter; format: in vivo, mouse
# Method: In vivo effects of excess Klk6 or PAR1-AP in spinal cord white matter: All mice were administered Buprenorphine preoperatively (Buprenex, 0.03 mg/kg, intraperitoneal (i.p.), Reckitt Benckise, Slough, UK) and every 12 hours for the first 48 hours following surgery. Surgical anesthesia was induced in age-matched male C57BL6/J or PAR12/2 mice using Ketamine (Ketaset, 80 mg/kg, Fort Dodge Animal Health, Fort Dodge, IA) and Xylazine i.p. (Anased, 10 mg/kg, Lloyd Laboratories, Shenendoah, IA). A thoracic (T11-T12) laminectomy was performed and a 30-40 μm glass capillary needle inserted into a 10 μL gas-tight Hamilton Syringe (Hamilton Company, Reno, NV) used to deliver 2 μL of Klk6 (0.01 μg/μL (300 nM)), PAR1-AP (0.01 μg/μL (100 μM)), or vehicle (physiologic saline) alone (n=3 for each treatment group) using a stereotaxic injection system (Stoelting, Wood Dale, IL). Under micromanipulator control (MyNeurolab, Richmond, IL), the needle was inserted 350 μm into the dorsal column, infusion carried out over 5 minutes and the needle left in place for 3 minutes to avoid backflow. All mice received 0.5 mL of sterile saline and Baytril (2.5 mg/kg, Bayer Healthcare, Shawnee Mission, KS) i.p. postoperatively.
# Seventy-two hours after microinjection of PAR1 agonists, mice were deeply anesthetized with Nembutal (50 mg/kg, i.p., Lundbeck, Deerfield, IL) and perfused transcardially with 4% PFA. Two millimeter transverse spinal cord segments encompassing the microinjection epicenter as well as 2 mm rostral and caudal were embedded in paraffin. Six micrometer sections were cut and slide mounted serially. Every sixth slide was stained with hematoxylin and eosin (H&E). Adjacent sections were immunostained for oligodendroglia using an antibody specific for CC-1/APC (ab16794, AbCam, Cambridge, MA), myelin using an antibody recognizing MBP (MAB386, Millipore, Bedford, MA), and standard avidin-biotin immunoperoxidase techniques (Scarisbrick et al., J Comp Neurol 431:347-361, 2001; and Scarisbrick et al. 2012b, supra). Stained sections were cover slipped with Permount (Fisher Scientific, Pittsburgh, PA) containing 2 mg/mL bisbenzamide to visualize nuclei (Sigma Aldrich).
# Measurements of white matter lesion area were based on signs of pathology (vacuolation, tissue destruction, hemorrhage) in 20× digital images of H&E stained sections. The largest lesion area in each animal was used to determine mean maximal lesion area and expressed in μm^2. The integrity of MBP immunoreactivity was assessed in sections for 2,000 μm rostrocaudal to the microinjection site. The number of dorsal column CC-1^+/DAPI^+ cells was quantified in sections across […] of spinal cord extending rostrocaudal to the epicenter. The mean area of dorsal column white matter in the intact spinal cord was approximately […]. To put the number of CC-1^+ oligodendrocytes into context, the mean number CC-1V cells per mm^2 was evaluated as the mean number per […]. Sections stained for CC-1 were also stained for GFAP (Sigma Aldrich), allowing for the exclusion of CC-1^+ astrocytes; however, no examples of double labeled cells were observed.
substance,measurement,setting,value
Klk6: Recombinant murine kallikrein-related peptidase 6 expressed using a baculovirus system,oligodendrocyte process retraction compared with controls,"primary oligodendrocytes; PAR1+/+ oligodendrocytes 3 DIV, 30 or 300 nM, 24 h",significant and statistically equivalent oligodendrocyte process retraction
same,number of O4+ cells,"primary oligodendrocytes; PAR1+/+, PAR1-/- or PAR2-/- cells",No significant differences
same,oligodendrocyte process retraction,"primary oligodendrocytes; PAR1-/- oligodendrocytes, 30 or 300 nM",did not exhibit statistically significant process retraction
same,oligodendrocyte process retraction,"primary oligodendrocytes; PAR2-/- oligodendrocytes, 30 or 300 nM",process retraction comparable to that seen in PAR1^+/+ cultures
same,Oli-neu cell number,Oli-neu oligodendrocytes; Klk6 30 nM,small but significant increase
same,number of processes per cell,"Oli-neu oligodendrocytes; Klk6 30, 150, 300 nM, thrombin 270 nM",significant and dose-dependent
same,maximal lesion area relative to saline alone,spinal cord white matter; PAR1+/+ mice,enhanced
same,reduction of CC-1+ cells in dorsal column white matter,spinal cord white matter; PAR1+/+ mice,~15%
same,rostrocaudal white matter pathology versus saline alone,spinal cord white matter; PAR1+/+ mice,two-fold greater
same,loss of MBP-immunoreactivity relative to saline alone,"spinal cord white matter; PAR1+/+ mice, 72 hours",~45%
same,"white matter surrounding injection site with vacuolating myelinopathy, tissue destruction and hemorrhage","spinal cord white matter; PAR1+/+ mice, 0.02 μg total, 72 hours","over 1,200 μm"
same,rostrocaudal white matter pathology,"spinal cord white matter; PAR1+/+ mice, 0.02 μg, 72 hours","1,242.0±95.3 μm"
same,white matter pathology,spinal cord white matter; PAR1-/- mice,largely absent
